Laboratory results from PMC7932537, “Quantitative profiling of protease specificity” (PLoS Computational Biology, 2021).

What was measured:
MMP-9 = MMP-9 (Homo sapiens, UniProt P14780); assay: K(obs) of individual phage substrates (set of 1369); assay type: biochemical; conditions: MMP9
MMP-2 [1] = target: T1, MMP-2 (Homo sapiens, UniProt P08253); assay: as above; assay type: biochemical; conditions: MMP2
T1 sequence (P08253 110-660): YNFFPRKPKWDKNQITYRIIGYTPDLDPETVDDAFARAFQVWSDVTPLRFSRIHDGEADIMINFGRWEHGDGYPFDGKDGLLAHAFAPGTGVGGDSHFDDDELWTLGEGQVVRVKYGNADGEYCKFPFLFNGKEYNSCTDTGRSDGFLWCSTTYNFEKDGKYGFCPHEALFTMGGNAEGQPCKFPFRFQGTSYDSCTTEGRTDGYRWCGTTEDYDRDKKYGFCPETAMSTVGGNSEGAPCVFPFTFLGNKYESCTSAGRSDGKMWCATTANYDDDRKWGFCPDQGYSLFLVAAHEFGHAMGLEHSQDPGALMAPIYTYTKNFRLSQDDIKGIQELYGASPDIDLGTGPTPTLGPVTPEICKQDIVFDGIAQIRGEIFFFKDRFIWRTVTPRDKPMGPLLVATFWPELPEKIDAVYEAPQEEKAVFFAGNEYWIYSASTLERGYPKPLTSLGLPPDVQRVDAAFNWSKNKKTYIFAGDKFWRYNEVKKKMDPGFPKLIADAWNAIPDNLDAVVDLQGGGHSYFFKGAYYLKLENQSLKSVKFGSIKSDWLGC

MMP-2 [2] = assay: Substrate phage display with NGS: relative probability (RP) of P3-P1' tetramer clusters; assay type: biochemical, human; conditions: MMP2;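 further: ratio of tetramer probability after protease selection to that in naive phage library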
[3] = individual phage substrate of the set of 1369 peptides, dash in the sequence marks the cleavage position
[4] = individual phage substrate of the set of 1369 peptides, cleavage position marked by '-'
[5] = RP of the P3-P1' tetramer contained in the substrate
[6] = individual phage substrates, set of 1369 peptides, hyphen in sequence marks cleavage position
[7] = individual phage substrates, set of 1369 peptides, cleavage position marked by hyphen in sequence
[8] = RP of the P3-P1' tetramer contained in the substrate (substrate phage display with NGS)

MMP-9, sequence (P14780 94-707): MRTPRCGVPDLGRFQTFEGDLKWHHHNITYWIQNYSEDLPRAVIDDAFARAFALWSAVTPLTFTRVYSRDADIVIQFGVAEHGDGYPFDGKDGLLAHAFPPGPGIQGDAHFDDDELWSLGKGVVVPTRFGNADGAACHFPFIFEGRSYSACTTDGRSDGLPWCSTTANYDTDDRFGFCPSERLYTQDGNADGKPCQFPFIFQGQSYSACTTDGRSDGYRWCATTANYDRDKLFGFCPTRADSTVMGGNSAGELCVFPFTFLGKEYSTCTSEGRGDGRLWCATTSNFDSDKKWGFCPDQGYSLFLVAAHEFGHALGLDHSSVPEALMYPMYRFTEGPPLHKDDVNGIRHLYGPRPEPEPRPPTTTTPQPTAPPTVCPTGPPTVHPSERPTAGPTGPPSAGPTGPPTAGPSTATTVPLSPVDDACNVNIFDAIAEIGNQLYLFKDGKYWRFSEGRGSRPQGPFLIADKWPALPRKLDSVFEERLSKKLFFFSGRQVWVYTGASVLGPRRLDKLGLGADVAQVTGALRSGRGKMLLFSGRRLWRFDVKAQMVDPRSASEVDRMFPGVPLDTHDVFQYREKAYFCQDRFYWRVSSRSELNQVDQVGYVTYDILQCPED

Substance: KTVVW-YTASG
- Kobs (MMP-9; [3]): 3850.82 M⁻¹ s⁻¹
- Kobs (MMP-2 [1]; [4]): 3165.09 M⁻¹ s⁻¹
- relative probability (RP) (MMP-2 [2]; [5]): 9.938

Substance: GGPFL-LKTAS
- Kobs (MMP-9; [6]): 8321.48 M⁻¹ s⁻¹
- Kobs (MMP-2 [1]; [7]): 1513.13 M⁻¹ s⁻¹
- relative probability (RP) (MMP-2 [2]; [8]): 9.085

Substance: HDYFN-LTASG
- Kobs (MMP-9; [6]): 0 M⁻¹ s⁻¹
- Kobs (MMP-2 [1]; [7]): 27.918 M⁻¹ s⁻¹
- relative probability (RP) (MMP-2 [2]; [8]): 0

Substance: GCPLS-LYTAS
- Kobs (MMP-9; [6]): 6688.74 M⁻¹ s⁻¹
- Kobs (MMP-2 [1]; [7]): 4335.13 M⁻¹ s⁻¹
- relative probability (RP) (MMP-2 [2]; [8]): 33.5282

Substance: HLAYH-MTASG
- Kobs (MMP-9; [6]): 6396.07 M⁻¹ s⁻¹
- Kobs (MMP-2 [1]; [7]): 2476.66 M⁻¹ s⁻¹
- relative probability (RP) (MMP-2 [2]; [8]): 3.76

Substance: YDISA-LTASG
- Kobs (MMP-9; [3]): 113.394 M⁻¹ s⁻¹
- Kobs (MMP-2 [1]; [4]): 12792.1 M⁻¹ s⁻¹
- relative probability (RP) (MMP-2 [2]; [5]): 31.8319

Substance: TSLAN-LTASG
- Kobs (MMP-9; [6]): 0 M⁻¹ s⁻¹
- Kobs (MMP-2 [1]; [7]): 9740.44 M⁻¹ s⁻¹
- relative probability (RP) (MMP-2 [2]; [8]): 34.4823

Substance: GEPNY-LKTAS
- Kobs (MMP-9; [6]): 1239.69 M⁻¹ s⁻¹
- Kobs (MMP-2 [1]; [7]): 2687.73 M⁻¹ s⁻¹
- relative probability (RP) (MMP-2 [2]; [8]): 17.2533

Substance: VLWAG-LTASG
- Kobs (MMP-9; [6]): 3344.37 M⁻¹ s⁻¹
- Kobs (MMP-2 [1]; [7]): 12792.1 M⁻¹ s⁻¹
- relative probability (RP) (MMP-2 [2]; [8]): 28.1709

Substance: GSVMN-LTASG
- Kobs (MMP-9; [6]): 2409.72 M⁻¹ s⁻¹
- Kobs (MMP-2 [1]; [7]): 3344.37 M⁻¹ s⁻¹
- relative probability (RP) (MMP-2 [2]; [8]): 18.6016

Substance: GRPRS-LTASG
- Kobs (MMP-9; [3]): 10866.7 M⁻¹ s⁻¹
- Kobs (MMP-2 [1]; [4]): 12792.1 M⁻¹ s⁻¹
- relative probability (RP) (MMP-2 [2]; [5]): 33.3704

Substance: SGGSG-LWATP
- Kobs (MMP-9; [3]): 1071.29 M⁻¹ s⁻¹
- Kobs (MMP-2 [1]; [4]): 1870.4 M⁻¹ s⁻¹
- relative probability (RP) (MMP-2 [2]; [5]): 1.9698

Substance: WPHGS-LTASG
- Kobs (MMP-9; [3]): 0 M⁻¹ s⁻¹
- Kobs (MMP-2 [1]; [4]): 12792.1 M⁻¹ s⁻¹
- relative probability (RP) (MMP-2 [2]; [5]): 19.9233

Substance: SGPHG-FFQTA
- Kobs (MMP-9; [3]): 551.253 M⁻¹ s⁻¹
- Kobs (MMP-2 [1]; [4]): 171.876 M⁻¹ s⁻¹
- relative probability (RP) (MMP-2 [2]; [5]): 21.975

Substance: GIVKH-LQTAS
- Kobs (MMP-9; [6]): 836.403 M⁻¹ s⁻¹
- Kobs (MMP-2 [1]; [7]): 1711.63 M⁻¹ s⁻¹
- relative probability (RP) (MMP-2 [2]; [8]): 14.8595

Substance: DRPNY-LTASG
- Kobs (MMP-9; [3]): 1196.62 M⁻¹ s⁻¹
- Kobs (MMP-2 [1]; [4]): 4082.43 M⁻¹ s⁻¹
- relative probability (RP) (MMP-2 [2]; [5]): 17.2533

Substance: SGYRS-LYSTA
- Kobs (MMP-9; [6]): 2476.66 M⁻¹ s⁻¹
- Kobs (MMP-2 [1]; [7]): 2280.5 M⁻¹ s⁻¹
- relative probability (RP) (MMP-2 [2]; [8]): 1.506

Substance: HQWAA-LTASG
- Kobs (MMP-9; [3]): 836.403 M⁻¹ s⁻¹
- Kobs (MMP-2 [1]; [4]): 12792.1 M⁻¹ s⁻¹
- relative probability (RP) (MMP-2 [2]; [5]): 24.4484

Substance: GGVSF-LLTAS
- Kobs (MMP-9; [6]): 27.918 M⁻¹ s⁻¹
- Kobs (MMP-2 [1]; [7]): 1112.44 M⁻¹ s⁻¹
- relative probability (RP) (MMP-2 [2]; [8]): 5.918

Substance: PKFSH-MTASG
- Kobs (MMP-9; [6]): 0 M⁻¹ s⁻¹
- Kobs (MMP-2 [1]; [7]): 1030.73 M⁻¹ s⁻¹
- relative probability (RP) (MMP-2 [2]; [8]): 11.0227

Substance: FVVRA-LTASG
- Kobs (MMP-9; [3]): 12792.1 M⁻¹ s⁻¹
- Kobs (MMP-2 [1]; [4]): 9740.44 M⁻¹ s⁻¹
- relative probability (RP) (MMP-2 [2]; [5]): 30.4312

Substance: LNPAF-LTASG
- Kobs (MMP-9; [3]): 8941.32 M⁻¹ s⁻¹
- Kobs (MMP-2 [1]; [4]): 12792.1 M⁻¹ s⁻¹
- relative probability (RP) (MMP-2 [2]; [5]): 32.4224

Substance: SGPMR-LVTTA
- Kobs (MMP-9; [6]): 4205.91 M⁻¹ s⁻¹
- Kobs (MMP-2 [1]; [7]): 1870.4 M⁻¹ s⁻¹
- relative probability (RP) (MMP-2 [2]; [8]): 20.4124

Substance: RYAQP-LTASG
- Kobs (MMP-9; [6]): 2409.72 M⁻¹ s⁻¹
- Kobs (MMP-2 [1]; [7]): 4205.91 M⁻¹ s⁻¹
- relative probability (RP) (MMP-2 [2]; [8]): 14.4283

Substance: YSATN-LTASG
- Kobs (MMP-9; [6]): 484.315 M⁻¹ s⁻¹
- Kobs (MMP-2 [1]; [7]): 12792.1 M⁻¹ s⁻¹
- relative probability (RP) (MMP-2 [2]; [8]): 16.0897

Substance: VQQQG-LTASG
- Kobs (MMP-9; [3]): 231.616 M⁻¹ s⁻¹
- Kobs (MMP-2 [1]; [4]): 3741.87 M⁻¹ s⁻¹
- relative probability (RP) (MMP-2 [2]; [5]): 6.401

Substance: GNAIH-LQTAS
- Kobs (MMP-9; [3]): 0 M⁻¹ s⁻¹
- Kobs (MMP-2 [1]; [4]): 1196.62 M⁻¹ s⁻¹
- relative probability (RP) (MMP-2 [2]; [5]): 13.4941

Substance: NTSAW-LTASG
- Kobs (MMP-9; [6]): 386.839 M⁻¹ s⁻¹
- Kobs (MMP-2 [1]; [7]): 6688.74 M⁻¹ s⁻¹
- relative probability (RP) (MMP-2 [2]; [8]): 18.9346

Substance: SGVYW-LRSTA
- Kobs (MMP-9; [3]): 12792.1 M⁻¹ s⁻¹
- Kobs (MMP-2 [1]; [4]): 9740.44 M⁻¹ s⁻¹
- relative probability (RP) (MMP-2 [2]; [5]): 16.4375

Substance: GSVHH-LITAS
- Kobs (MMP-9; [3]): 0 M⁻¹ s⁻¹
- Kobs (MMP-2 [1]; [4]): 0 M⁻¹ s⁻¹
- relative probability (RP) (MMP-2 [2]; [5]): 14.1228

Substance: GIAHQ-LKTAS
- Kobs (MMP-9; [6]): 201.585 M⁻¹ s⁻¹
- Kobs (MMP-2 [1]; [7]): 726.013 M⁻¹ s⁻¹
- relative probability (RP) (MMP-2 [2]; [8]): 4.1

Substance: GYPRN-IGTAS
- Kobs (MMP-9; [3]): 7386.83 M⁻¹ s⁻¹
- Kobs (MMP-2 [1]; [4]): 8941.32 M⁻¹ s⁻¹
- relative probability (RP) (MMP-2 [2]; [5]): 31.9621

Substance: SGPRM-LVLTA
- Kobs (MMP-9; [3]): 6688.74 M⁻¹ s⁻¹
- Kobs (MMP-2 [1]; [4]): 4082.43 M⁻¹ s⁻¹
- relative probability (RP) (MMP-2 [2]; [5]): 30.5973

Substance: GIVGM-LQTAS
- Kobs (MMP-9; [3]): 323.705 M⁻¹ s⁻¹
- Kobs (MMP-2 [1]; [4]): 4613.14 M⁻¹ s⁻¹
- relative probability (RP) (MMP-2 [2]; [5]): 28.5913

Substance: DKLAS-LTASG
- Kobs (MMP-9; [3]): 0 M⁻¹ s⁻¹
- Kobs (MMP-2 [1]; [4]): 12792.1 M⁻¹ s⁻¹
- relative probability (RP) (MMP-2 [2]; [5]): 31.1996
